The target of data set [1] is T1, ADC-7 (Acinetobacter baumannii, UniProt Q6DRA1). Kind of data set: Inhibition kinetics (competition with nitrocefin), ADC-7. In kind it is biochemical. The note with it: 100 μM nitrocefin, 3 min pre-incubation, Cheng–Prusoff corrected. As to the method: (§1) For inhibition kinetics, utilizing nitrocefin (NCF) as a colorimetric substrate, the inhibition constant (Ki) of MB076 and S02030 BATSI with ADCs was determined using competition kinetics as previously described.[10],[25],[28],[34] The measurements of the initial velocities were performed with the addition of 100 μM NCF after a 3 min pre-incubation of the enzyme (2 nM) with increasing concentration of the inhibitor. […] The Ki value was corrected for the NCF affinity (KM values for each ADC variant listed in Table 1) with the Cheng–Prusoff[35] equation: [drawing 2]

For data set [2], the target named is T2, ADC-30 (Acinetobacter baumannii, UniProt A7XM81). The data set can be described thus: Inhibition kinetics (competition with nitrocefin), ADC-30. It is filed as biochemical. The note with it: 100 μM nitrocefin, 3 min pre-incubation. As for the experimental part: as §1
Data set [3] addresses T3, ADC-162 (Acinetobacter baumannii, UniProt A0A2H4PPJ8). Kind of data set: Inhibition kinetics (competition with nitrocefin), ADC-162. In kind it is biochemical. As for the experimental part:
as §1

Data set [4] addresses T4, ADC-33 (Acinetobacter baumannii, UniProt A7Y407). Kind of data set: Inhibition kinetics (competition with nitrocefin), ADC-33. In kind it is biochemical. The note with it: 100 μM nitrocefin, 3 min pre-incubation. As to the method: as §1
In another data set the target is ADC variants. The data set can be described thus: Inhibition kinetics, statement for all ADC variants. In kind it is biochemical, Acinetobacter baumannii. The note with it: bound stated for all ADC variants of the study. As for the experimental part:
as §1

For data set [5], the system named is ADC-212 in pBCSK(−) E. coli DH10B. Kind of data set: Broth microdilution AST, ADC-212. It is filed as cell-based. The settings on record: for MIC: Escherichia coli, E. coli DH10B ADC-212, MB076 fixed at 10 mg/L in combinations, FDC in iron-depleted broth. As for the experimental part: (§2) Susceptibility testing to standard antibiotics was performed by broth microdilution or agar dilution using an Oxoid replicator according to 2021 Clinical and Laboratory Standards Institute (CLSI) guidelines. MICs for CAZ, CTX, FEP, and TOL were determined using cation-adjusted Mueller Hinton MH broth, and MICs for FDC were done in iron-depleted cation-adjusted MH broth according to CLSI methods. MB076, S02030, and VAB were used at a fixed concentration of 10 mg/L. All MICs were interpreted according to the 2021 CLSI guidelines.[43]
(§3) blaADC-7 pBCSK- was cloned and expressed in E. coli DH10B cells as previously described.[44] All other blaADC variants were synthesized by GenScript according to the blaADC-7 pBCSK- strategy, cloning into the XbaI/BamHI sites of the pBCSK- vector.
(In general: Dilution methods test growth across graded concentrations, often in twofold steps.)

Data set [6] relates to ADC-33 in pBCSK(−) E. coli DH10B. The data set can be described thus: Agar dilution AST, ADC-33. It is filed as cell-based. As to the method: as §2, §3
For orientation: Agar dilution tests growth on a series of plates holding different concentrations.

Another data set can be described thus: in vitro. The note with it: human, plasma, pH 7.4. As for the experimental part:
(§4) The in vitro stability of MB076 and S02030 was evaluated by incubating the compounds in both buffer (pH 7.4) and human plasma at 37 °C over 48 h. Half-lives (t1/2) were then calculated for each compound.
(§5) Plasma and buffer stability samples were analyzed by monitoring the disappearance of the compounds using high-performance liquid chromatography-mass spectrometry (LC–MS) techniques.
Half-lives (t1/2) were calculated in Origin using a one-phase decay model with t1/2 = ln(2)/b, where b is the slope of a linear plot of natural logarithm (ln) of the remaining compound concentration (C) versus incubation time. Each condition was tested in triplicate.

The nature of a further data set: physchem. The settings on record: buffer, pH 7.4. As for the experimental part:
as §4, §5
Standard solutions were prepared by adding the compound in DMSO (2.5 μM) to 0.1 M phosphate buffer pH 7.4 and MeOH. Solutions were vortexed, filtered, and analyzed by LC–MS (At=0). Samples were then prepared by adding a solution of the compound in DMSO (2.5 μM) to phosphate buffer pH 7.4 and incubating at 37 °C. At suitable time intervals, the reaction was stopped by the addition of MeOH. The solutions were vortexed and filtered. Degradation time courses were followed by LC–MS enabling the quantitation of compounds. Half-lives (t1/2) were calculated in Origin using a one-phase decay model with t1/2 = ln(2)/b, where b is the slope of a linear plot of natural logarithm (ln) of the remaining compound concentration (C) versus incubation time. Each condition was tested in triplicate.

The target in data set [7] is T3, ADC-162. The note with it: substrate. As for the experimental part:
(§6) Steady-state kinetic parameters were determined by combining pure enzyme with antibiotic substrates in 50 mM NaH2PO4, pH 7.4 at room temperature. Changes in absorbance were measured on a Cary 60 UV–Vis spectrophotometer (Agilent Technologies) and converted to velocity using the change in extinction coefficient specific to nitrocefin (ε482 = 17,400 M^–1·cm^–1), cephalothin (ε262 = 7660 M^–1·cm^–1), ceftazidime (ε260 = 8660 M^–1·cm^–1), cefotaxime (ε260 = 7500 M^–1·cm^–1), cefepime (ε260 = 750 M^–1·cm^–1), cefiderocol (ε259 = 9430 M^–1·cm^–1), and ceftolozane (ε254 = 6810 M^–1·cm^–1). Initial velocities were fit to the Michaelis–Menten equation yielding kcat and KM values. For ADC/substrate combinations in which the KM was too large to accurately determine both kcat and KM values, the initial velocities at kcat/KM values were calculated from linear fits of vo in low [S] ranges (<0.08 × KM).

In data set [8] the target is T2, ADC-30. As for the experimental part: as §6
Data set [9] deals with T4, ADC-33. As to the method:
as §6

Data set [10] has as its target T1, ADC-7. As for the experimental part:
as §6

For another data set, the target named is ADC-212 (Acinetobacter baumannii, UniProt A8QIF8, A224D/INS243L/P244A). In kind it is biochemical. The note with it: substrate. As for the experimental part:
as §6

The next data set addresses ADC-219 (Acinetobacter baumannii, UniProt A7Y407, G248D). In kind it is biochemical. The settings on record: substrate. As for the experimental part:
as §6

The test system of data set [11] is ADC-7 in pBCSK(−) E. coli DH10B. The data set can be described thus: Broth microdilution AST, ADC-7. It is filed as cell-based. The settings on record: Escherichia coli, E. coli DH10B ADC-7, MB076 fixed at 10 mg/L in combinations, FDC in iron-depleted broth. As to the method: as §2, §3
Data set [12] has as its system ADC-30 in pBCSK(−) E. coli DH10B. Kind of data set: Broth microdilution AST, ADC-30. The settings on record: Escherichia coli, E. coli DH10B ADC-30, MB076 fixed at 10 mg/L in combinations, FDC in iron-depleted broth. In kind it is cell-based. As for the experimental part: as §2, §3
Data set [13] concerns ADC-33 in pBCSK(−) E. coli DH10B. The data set can be described thus: Broth microdilution AST, ADC-33. In kind it is cell-based. The settings on record: Escherichia coli, E. coli DH10B ADC-33, MB076 fixed at 10 mg/L in combinations, FDC in iron-depleted broth. As to the method: as §2, §3
The subject of data set [14] is ADC-219 in pBCSK(−) E. coli DH10B. Kind of data set: Broth microdilution AST, ADC-219. In kind it is cell-based. The note with it: Escherichia coli, E. coli DH10B ADC-219, MB076 fixed at 10 mg/L in combinations, FDC in iron-depleted broth. As to the method: as §2, §3
In data set [15] the test system is ADC-7 in pBCSK(−) E. coli DH10B. The data set can be described thus: Agar dilution AST, ADC-7. In kind it is cell-based. The note with it: Escherichia coli, E. coli DH10B ADC-7, MB076, S02030, VAB fixed at 10 mg/L. As for the experimental part:
as §2, §3

Data set [16] concerns ADC-30 in pBCSK(−) E. coli DH10B. Kind of data set: Agar dilution AST, ADC-30. In kind it is cell-based. The note with it: Escherichia coli, E. coli DH10B ADC-30, MB076, S02030, VAB fixed at 10 mg/L. As for the experimental part: as §2, §3
Data set [17] relates to ADC-162 in pBCSK(−) E. coli DH10B. The data set can be described thus: Agar dilution AST, ADC-162. In kind it is cell-based. The note with it: Escherichia coli. As to the method: as §2, §3
Data set [18] has as its system ADC-212 in pBCSK(−) E. coli DH10B. Kind of data set: Agar dilution AST, ADC-212. The settings on record: Escherichia coli, E. coli DH10B ADC-212, MB076, S02030, VAB fixed at 10 mg/L. It is filed as cell-based. As to the method: as §2, §3
The subject of data set [19] is ADC-219 in pBCSK(−) E. coli DH10B. Kind of data set: Agar dilution AST, ADC-219. It is filed as cell-based. The note with it: Escherichia coli, E. coli DH10B ADC-219, MB076, S02030, VAB fixed at 10 mg/L. As for the experimental part: as §2, §3

Like-named read-outs stand apart in the source and are kept apart here. Bounds are passed on as bounds.

The term Ki denotes the dissociation constant of the complex between target and ligand, obtained from inhibition or displacement. The half-life is how long it takes for the measured level to halve. A lower half-life goes with fast loss. The Km is the concentration of substrate that gives half-maximal velocity. By MIC is commonly meant the lowest concentration that inhibits growth of the organism.

Turning to `Nc1nnc(SCC(=O)N[C@@H](Cn2cc(C(=O)O)nn2)B(O)O)s1` [MB076, (R)-1-(2-(2-((5-Amino-1,3,4-thiadiazol-2-yl)thio)acetamido)-2-boronoethyl)-1H-1,2,3-triazole-4-carboxylic Acid], the Ki on ADC-7 [1] was 0.21 ± 0.016 µM; at ADC-30 [2], 0.058 ± 0.005 µM; at ADC-162 [3] it was 0.79 ± 0.039 µM; on ADC-33 [4], 0.1 ± 0.004 µM; on ADC variants, less than 1 µM. The “reduction of the CTX MIC by MB076” value in data set [5] (ADC-212, MB076 10 mg/L) is given as 3 fold doubling dilution. Moreover, in data set [6] (ADC-33 variant, inhibitors 10 mg/L), the “increase of susceptibility to CAZ relative to S02030” value is 3 fold. In “in vitro”, this molecule gave a half-life at 2.5 μM of 29 h. In the data set “physchem”, this molecule showed a half-life of 33 h.
For the molecule `CO/N=C(\C(=O)N[C@@H]1C(=O)N2C(C(=O)O)=C(COC(C)=O)CS[C@H]12)c1csc(N)n1` [cefotaxime], the kcat amounted to 25.4 s^–1 on ADC-162 [7]; 0.12 s^–1 at ADC-30 [8]; 0.46 s^–1 at ADC-33 [9]; 0.048 s^–1 on ADC-7 [10]; 12.0 s^–1 on ADC-212; 44.2 s^–1 on ADC-219. For the same molecule, the Km on ADC-162 [7] (50 mM NaH2PO4 pH 7.4, room temperature) is 115 µM; on ADC-30 [8] (ADC-30, substrate, 50 mM NaH2PO4 pH 7.4, room temperature), 4.35 ± 1.81 µM; at ADC-33 [9] (ADC-33, substrate, 50 mM NaH2PO4 pH 7.4, room temperature), 7.11 ± 1.05 µM; at ADC-7 [10] (ADC-7, substrate, 50 mM NaH2PO4 pH 7.4, room temperature), 1.23 ± 0.17 µM. Besides, the MIC in [11] turned out to be 64 mg/L; in data set [12], 64 mg/L; in data set [13], 128 mg/L; in data set [5], 128 mg/L; in data set [14], 16 mg/L.
As for `CC(C)(O/N=C(\C(=O)N[C@@H]1C(=O)N2C(C(=O)[O-])=C(C[n+]3ccccc3)CS[C@H]12)c1csc(N)n1)C(=O)O` [ceftazidime], the kcat on ADC-33 [9] (ADC-33, substrate) amounted to 3.71 s^–1. In addition, the MIC in [11] was found to be 64 mg/L; in data set [12], 128 mg/L; in data set [13] it was 2050 mg/L; in [5], 512 mg/L; in data set [14], 256 mg/L; in data set [15], 64 mg/L. Besides, the MIC in data set [16] turned out to be 64 mg/L; in [6] (Escherichia coli, E. coli DH10B ADC-33, MB076, S02030, VAB fixed at 10 mg/L), 1020 mg/L; in data set [17] it was 128 mg/L; in [18], 256 mg/L; in data set [19], 64 mg/L.
